From publication PMC9245008 (ACS chemical biology, 2022)

Tests used:
IRAK4 [1] = target: T1, IRAK4 (Homo sapiens, UniProt Q9NWZ3); details: cited from earlier work
T1 sequence (Q9NWZ3 1-460): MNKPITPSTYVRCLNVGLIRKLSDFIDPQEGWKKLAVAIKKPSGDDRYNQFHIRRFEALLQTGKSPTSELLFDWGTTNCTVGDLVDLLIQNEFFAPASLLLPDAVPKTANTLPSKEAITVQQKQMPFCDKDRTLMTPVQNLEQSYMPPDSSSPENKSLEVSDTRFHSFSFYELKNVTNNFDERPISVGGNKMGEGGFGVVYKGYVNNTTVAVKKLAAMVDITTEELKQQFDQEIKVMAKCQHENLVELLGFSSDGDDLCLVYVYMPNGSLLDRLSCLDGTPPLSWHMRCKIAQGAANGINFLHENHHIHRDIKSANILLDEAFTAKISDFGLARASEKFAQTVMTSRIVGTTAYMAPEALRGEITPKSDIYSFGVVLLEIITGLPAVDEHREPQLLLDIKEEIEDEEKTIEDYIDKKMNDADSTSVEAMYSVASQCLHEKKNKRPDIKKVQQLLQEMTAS

CIA mouse model = details: 50 mg/kg IP; cited from earlier work
TAK1 = target: T2, TAK1 (Homo sapiens, UniProt O43318); experiment: Potency of takinib analogues against TAK1; format: biochemical
T2 sequence (O43318 1-303 limits assumed): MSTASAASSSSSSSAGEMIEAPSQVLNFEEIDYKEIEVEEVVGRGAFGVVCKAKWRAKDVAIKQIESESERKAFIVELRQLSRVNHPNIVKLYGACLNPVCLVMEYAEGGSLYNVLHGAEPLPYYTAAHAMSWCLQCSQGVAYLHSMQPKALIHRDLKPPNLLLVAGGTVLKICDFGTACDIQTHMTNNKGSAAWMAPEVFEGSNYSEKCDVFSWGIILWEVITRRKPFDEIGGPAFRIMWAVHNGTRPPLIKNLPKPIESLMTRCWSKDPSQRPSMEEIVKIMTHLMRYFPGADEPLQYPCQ

IRAK4 [2] = target: T1, IRAK4; experiment: Potency of takinib analogues against IRAK4; format: biochemical; details: IRAK4 IC50 over TAK1 IC50

IC50 (TAK1): 9 nM | Ratio (IRAK4 [2]): 13
SMILES: CCCn1c(=NC(=O)c2cccc(C(N)=O)c2)[nH]c2ccccc21 [Takinib, N-(1-propyl-1,3-dihydro-2H-benzo[d]imidazol-2-ylidene)isophthalamide]
IRAK4 less potently inhibited than TAK1 (IRAK4 [1]): 13 fold | IC50 (IRAK4 [1]; read-out: IRAK4 IC50, two independent kinome wide screens): ~120 nM | reduction of mean clinical score (CIA mouse model): ~ 32%
